From PubChem BioAssay (NCI)
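Cells were grown in 96-well plates and exposed to each compound for 48 hours at five concentrations; endpoints were interpolated linearly between bracketing concentrations, or set to the highest concentration if not reached. Definition used: TGI = concentration required for complete inhibition of growth.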

Tests used:
Assay in all cases: growth of human tumour cells (NCI), 48 h
UACC-62 melanoma = system: UACC-62 melanoma
SK-OV-3 ovarian = system: SK-OV-3 ovarian
COLO 205 colon = system: COLO 205 colon
HT29 colon = system: HT29 colon
DU-145 prostate = system: DU-145 prostate
NCI-H23 lung = system: NCI-H23 lung
RXF 393 renal = system: RXF 393 renal
TK-10 renal = system: TK-10 renal
SW-620 colon = system: SW-620 colon
A498 renal = system: A498 renal
MALME-3M melanoma = system: MALME-3M melanoma
SR leukemia = system: SR leukemia
UO-31 renal = system: UO-31 renal
MDA-MB-231 breast = system: MDA-MB-231 breast

| Compound | TGI (UACC-62 melanoma) [µM] | TGI (SK-OV-3 ovarian) [µM] | TGI (COLO 205 colon) [µM] | TGI (HT29 colon) [µM] | TGI (DU-145 prostate) [µM] | TGI (NCI-H23 lung) [µM] | TGI (RXF 393 renal) [µM] | TGI (TK-10 renal) [µM] | TGI (SW-620 colon) [µM] | TGI (A498 renal) [µM] | TGI (MALME-3M melanoma) [µM] | TGI (SR leukemia) [µM] | TGI (UO-31 renal) [µM] | TGI (MDA-MB-231 breast) [µM] |
| --- | --- | --- | --- | --- | --- | --- | --- | --- | --- | --- | --- | --- | --- | --- |
| COc1cc(C2C3=C(COC3=O)Oc3cc4c(cc32)OCO4)ccc1O (stereo not given) | > 100 | 0.932 | 0.576 | 37.9 | > 100 | > 100 | > 100 | > 100 | > 100 | > 25.7 |  |  |  |  |
| CC(=O)OCC1OC(n2ccc(=O)[nH]c2=O)C(OC(C)=O)C(OC(C)=O)C1OC(C)=O (stereo not given) | > 100 | > 100 | > 100 | > 100 |  | > 100 | > 100 | > 100 | > 100 | > 100 | > 100 | > 100 | > 100 |  |
| CNC(=O)NCNC(=O)NC | > 100 | > 100 | > 100 | > 100 |  | > 100 |  | > 100 | > 100 | > 100 | > 100 |  |  |  |
| CCc1c2c(cc3c1CC1(C3)Cc3cc4c(c(C(=O)OC)c3C1)CCCC4)CCCC2 (stereo not given) | 35.1 | > 100 | > 100 | > 100 |  | > 100 | > 100 | > 100 |  | > 100 | > 100 | > 100 | > 100 | > 100 |
| CCNC(=O)c1cc(Cl)ccc1NC(=O)C12CC3CC(CC(C3)C1)C2 |  |  | > 100 | 37.3 | 88.9 | > 100 | 43.9 | > 100 | > 100 | > 100 | > 100 |  | 56.4 | > 100 |
| Cc1cccc(-n2c(N)c(-c3nc4ccccc4[nH]3)sc2=S)c1 | 78.1 | 91.7 | 51.8 | 56.6 |  | > 100 | 72.9 | 68.5 | 99.2 | > 100 | 74.4 |  | 87.8 |  |
| COc1ccc(OC)c(NCC(=O)Nn2cnc3ccc(S(=O)(=O)Nc4cc(OC)ccc4OC)cc3c2=O)c1 | > 100 | > 100 | > 100 | > 100 | > 100 | > 100 |  | > 100 | > 100 |  | > 100 | > 100 | > 100 | > 100 |
| Cc1ccc(C2(c3ccc(Cl)cc3)c3ccccc3C3=NCCN32)cc1 (stereo not given) | 20 | 20.7 | 18.7 | 14.6 | 26.1 | 32 | 10.9 | 18.5 | 32.6 | 20 | 16 |  | 18.1 | 19.4 |
| COc1ccc(/C(=N\NC(=O)NN)C(c2ccc(OC)cc2)C2(O)C(=O)Nc3c(Cl)cc(Cl)cc32)cc1 (stereo not given) | > 100 |  | > 100 | > 100 |  | > 100 | > 100 | > 100 | > 100 |  | > 100 |  | > 100 |  |
| O=C(CN(C(=O)OC12CC3CC(CC(C3)C1)C2)C(=O)OC12CC3CC(CC(C3)C1)C2)Oc1ccc([N+](=O)[O-])cc1 | > 100 | > 100 | > 100 | > 100 |  | > 100 | > 100 | > 100 | > 100 |  | > 100 | > 100 | > 100 | > 100 |
| CCOC(=O)C(=O)C=P(c1ccccc1)(c1ccccc1)c1ccccc1 | > 100 | > 100 | > 100 | > 100 |  | > 100 | > 100 | > 100 | > 100 | > 100 | > 100 | > 100 | > 100 |  |
| COC1CCON1C(=O)c1ccccc1 (stereo not given) |  | > 10 | > 10 | > 10 | > 10 | > 10 | > 10 | > 10 | > 10 |  | > 10 | > 10 | > 10 | > 10 |
| C1CSCCSCCCSC2CCCCC2SC1 (stereo not given) | > 100 | > 100 | > 100 | 60.9 | > 100 | > 100 |  | > 100 | > 100 |  |  | > 100 | > 100 | > 100 |
| CCOC(=O)C1SC(=Nc2ccc(OC)c(OC)c2)N=C1C (stereo not given) | 67.9 | > 100 | > 100 | 34.8 |  | > 100 | > 100 | > 100 | > 100 | > 100 | 83.4 |  | 86.7 |  |
| C=CCNC(=S)N1CC(C)C(=O)Nc2cc(Cl)ccc21 (stereo not given) | > 100 | > 100 | > 100 | > 100 |  | > 100 | > 100 | > 100 |  | > 100 | > 100 | > 100 | > 100 |  |
| CC1(c2sccc2Cl)CC(c2sccc2Cl)=C(C#N)C(=C(C#N)C#N)N1 (stereo not given) | 32.5 | 31.5 | 41.8 | 54.6 | 31.2 | 35.9 | 42.4 | 31.6 | 39 | 33.3 | 32.8 |  |  | 42.9 |
| O=C(Nc1ccc(Cl)cc1C(F)(F)F)C(=O)C1CCCS1(=O)=O (stereo not given) | > 100 |  | > 100 | > 100 |  | > 100 | > 100 | > 100 | > 10 | > 100 | > 100 | > 100 |  |  |
| N#CC(/C(CCC(=O)Nc1ccc(Cl)cc1)=N/NC(=O)c1cc2ccccc2cc1O)c1ccccc1 (stereo not given) | > 100 |  | > 100 | > 100 |  | > 100 | > 100 | > 100 | > 100 |  | > 100 |  | > 100 |  |
| S=C1NC2=C(COc3ccccc32)C(c2ccc(Cl)cc2)N1 (stereo not given) | 34.7 | 35.8 | 36.9 | 31.7 | 35.7 | 45.9 | 37.4 |  | 78.8 | 39.1 |  |  | 35.1 | 34 |
